Data as given in patent US11117892B2, “Pyrrolo-pyridine derivative compound, method for preparing same, and pharmaceutical composition containing same as active ingredient for prevention or treatment of protein kinase-related diseases” (DAEGU-GYEONGBUK MEDICAL INNOVATION FOUNDATION, priority 2017, dated 2021).

Tests used:
Assay in all cases: scanMAX Kinase assay panel
Format in all cases: binding
Conditions in all cases: read-out: % control
[1] = target: NEK5 (Homo sapiens (Human), UniProt Q6P3R8)
Method in brief: (§1)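 % control read-out: DMSO vehicle = 100%, positive control = 0%, test compound scaled between these two. Selectivity profiling was done on the scanMAX kinase panel.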

[2] = target: EPHA1 (Homo sapiens (Human), UniProt P21709)
Chain of EPHA1 (P21709 26-976): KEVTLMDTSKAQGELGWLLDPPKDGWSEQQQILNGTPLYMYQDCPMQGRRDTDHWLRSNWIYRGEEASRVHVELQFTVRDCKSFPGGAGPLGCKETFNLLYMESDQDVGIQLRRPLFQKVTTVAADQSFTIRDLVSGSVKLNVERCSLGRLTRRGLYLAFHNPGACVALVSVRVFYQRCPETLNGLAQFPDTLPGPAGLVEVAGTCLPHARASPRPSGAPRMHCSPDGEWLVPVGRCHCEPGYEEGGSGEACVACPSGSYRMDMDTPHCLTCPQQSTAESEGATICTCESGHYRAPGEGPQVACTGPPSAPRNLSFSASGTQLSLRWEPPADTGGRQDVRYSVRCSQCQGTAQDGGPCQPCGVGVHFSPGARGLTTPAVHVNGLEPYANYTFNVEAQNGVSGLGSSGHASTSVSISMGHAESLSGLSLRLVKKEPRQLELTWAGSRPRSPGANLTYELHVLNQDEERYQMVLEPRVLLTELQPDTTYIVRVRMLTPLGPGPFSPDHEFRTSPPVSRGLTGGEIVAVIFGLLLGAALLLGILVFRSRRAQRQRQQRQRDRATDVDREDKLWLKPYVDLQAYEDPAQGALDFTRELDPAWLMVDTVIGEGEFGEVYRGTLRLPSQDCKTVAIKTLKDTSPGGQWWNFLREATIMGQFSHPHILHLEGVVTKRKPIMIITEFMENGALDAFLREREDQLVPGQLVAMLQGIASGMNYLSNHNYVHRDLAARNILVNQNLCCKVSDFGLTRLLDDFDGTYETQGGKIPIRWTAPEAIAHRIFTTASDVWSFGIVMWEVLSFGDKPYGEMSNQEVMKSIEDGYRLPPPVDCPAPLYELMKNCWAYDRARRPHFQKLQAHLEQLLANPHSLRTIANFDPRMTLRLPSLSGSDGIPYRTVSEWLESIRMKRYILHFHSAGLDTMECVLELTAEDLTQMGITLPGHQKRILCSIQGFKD
Method in brief: as §1

[3] = target: PIK3CA(H1047Y) (Homo sapiens (Human), UniProt P42336, H1047Y)
Method in brief: as §1

[4] = target: DLK (Homo sapiens (Human), UniProt Q12852)
Method in brief: as §1

[5] = target: PLK1 (Homo sapiens (Human), UniProt P53350)
Method in brief: as §1

[6] = target: NEK7 (Homo sapiens (Human), UniProt Q8TDX7)
Chain of NEK7 (Q8TDX7 whole entry): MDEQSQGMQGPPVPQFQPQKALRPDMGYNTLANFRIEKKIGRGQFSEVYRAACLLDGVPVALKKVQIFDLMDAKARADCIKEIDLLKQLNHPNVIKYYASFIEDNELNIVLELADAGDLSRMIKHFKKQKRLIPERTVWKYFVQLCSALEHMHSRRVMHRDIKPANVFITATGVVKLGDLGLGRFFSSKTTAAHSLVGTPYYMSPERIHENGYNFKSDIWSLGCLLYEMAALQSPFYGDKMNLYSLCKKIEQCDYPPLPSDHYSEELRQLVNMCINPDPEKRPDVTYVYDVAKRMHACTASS
Method in brief: as §1

[7] = target: ABL1(F317I)-phosphorylated (Homo sapiens (Human), UniProt P00519, F317I)
Method in brief: as §1

[8] = target: CSNK1G1 (Homo sapiens (Human), UniProt Q9HCP0)
Method in brief: as §1

[9] = target: ALK(L1196M) (Homo sapiens (Human), UniProt Q9UM73, L1196M)
Method in brief: as §1

[10] = target: HUNK (Homo sapiens (Human), UniProt P57058)
Chain of HUNK (P57058 whole entry): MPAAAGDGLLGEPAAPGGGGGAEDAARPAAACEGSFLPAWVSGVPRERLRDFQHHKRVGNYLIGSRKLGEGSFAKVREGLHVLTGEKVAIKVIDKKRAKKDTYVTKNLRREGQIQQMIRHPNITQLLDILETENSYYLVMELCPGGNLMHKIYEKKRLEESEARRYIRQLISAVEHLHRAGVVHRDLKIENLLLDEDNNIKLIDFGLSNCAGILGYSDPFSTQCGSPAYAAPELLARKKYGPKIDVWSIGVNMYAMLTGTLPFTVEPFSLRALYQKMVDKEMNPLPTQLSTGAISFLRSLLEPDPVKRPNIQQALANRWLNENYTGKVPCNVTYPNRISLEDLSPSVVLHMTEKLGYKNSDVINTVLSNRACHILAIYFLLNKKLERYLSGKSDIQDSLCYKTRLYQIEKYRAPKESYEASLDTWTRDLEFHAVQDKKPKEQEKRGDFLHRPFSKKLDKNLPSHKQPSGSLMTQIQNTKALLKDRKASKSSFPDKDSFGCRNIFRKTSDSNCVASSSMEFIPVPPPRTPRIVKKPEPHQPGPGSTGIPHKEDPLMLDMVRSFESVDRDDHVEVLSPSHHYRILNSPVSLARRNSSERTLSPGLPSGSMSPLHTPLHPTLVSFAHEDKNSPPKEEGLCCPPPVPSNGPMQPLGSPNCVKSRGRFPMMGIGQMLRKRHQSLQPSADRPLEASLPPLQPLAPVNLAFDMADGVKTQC
Method in brief: as §1

[11] = target: MLK3 (Homo sapiens (Human), UniProt Q16584)
Method in brief: as §1

[12] = target: STK36 (Homo sapiens (Human), UniProt Q9NRP7)
Method in brief: as §1

[13] = target: AMPK-alpha2 (Homo sapiens (Human), UniProt P54646)
Method in brief: as §1

[14] = target: CLK1 (Homo sapiens (Human), UniProt P49759)
Method in brief: as §1

[15] = target: CDK11 (Homo sapiens (Human), UniProt Q9BWU1)
Chain of CDK11 (Q9BWU1 whole entry): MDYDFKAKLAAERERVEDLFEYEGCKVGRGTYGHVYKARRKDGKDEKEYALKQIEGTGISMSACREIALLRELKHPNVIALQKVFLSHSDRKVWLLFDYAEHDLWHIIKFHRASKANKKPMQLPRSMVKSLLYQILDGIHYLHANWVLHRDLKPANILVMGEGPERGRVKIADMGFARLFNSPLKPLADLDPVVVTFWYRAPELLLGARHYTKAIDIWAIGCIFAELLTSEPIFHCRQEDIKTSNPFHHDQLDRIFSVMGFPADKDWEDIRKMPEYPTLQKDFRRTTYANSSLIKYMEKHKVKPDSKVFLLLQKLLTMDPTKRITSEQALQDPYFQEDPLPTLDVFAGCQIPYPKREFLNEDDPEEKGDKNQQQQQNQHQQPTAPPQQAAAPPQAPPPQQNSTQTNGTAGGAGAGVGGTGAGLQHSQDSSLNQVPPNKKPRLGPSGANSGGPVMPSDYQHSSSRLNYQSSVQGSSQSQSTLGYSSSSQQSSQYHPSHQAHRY
Method in brief: as §1

[16] = target: VEGFR2 (Homo sapiens (Human), UniProt P35968)
Method in brief: as §1

[17] = target: TIE2 (Homo sapiens (Human), UniProt Q02763)
Method in brief: as §1

[18] = target: CLK2 (Homo sapiens (Human), UniProt P49760)
Method in brief: as §1

[19] = target: GRK7 (Homo sapiens (Human), UniProt Q8WTQ7)
Method in brief: as §1

[20] = target: ARK5 (Homo sapiens (Human), UniProt O60285)
Method in brief: as §1

[21] = target: PAK6 (Homo sapiens (Human), UniProt Q9NQU5)
Method in brief: as §1

[22] = target: EPHA7 (Homo sapiens (Human), UniProt Q15375)
Method in brief: as §1

[23] = target: DYRK2 (Homo sapiens (Human), UniProt Q92630)
Method in brief: as §1

[24] = target: ITK (Homo sapiens (Human), UniProt Q08881)
Chain of ITK (Q08881 whole entry): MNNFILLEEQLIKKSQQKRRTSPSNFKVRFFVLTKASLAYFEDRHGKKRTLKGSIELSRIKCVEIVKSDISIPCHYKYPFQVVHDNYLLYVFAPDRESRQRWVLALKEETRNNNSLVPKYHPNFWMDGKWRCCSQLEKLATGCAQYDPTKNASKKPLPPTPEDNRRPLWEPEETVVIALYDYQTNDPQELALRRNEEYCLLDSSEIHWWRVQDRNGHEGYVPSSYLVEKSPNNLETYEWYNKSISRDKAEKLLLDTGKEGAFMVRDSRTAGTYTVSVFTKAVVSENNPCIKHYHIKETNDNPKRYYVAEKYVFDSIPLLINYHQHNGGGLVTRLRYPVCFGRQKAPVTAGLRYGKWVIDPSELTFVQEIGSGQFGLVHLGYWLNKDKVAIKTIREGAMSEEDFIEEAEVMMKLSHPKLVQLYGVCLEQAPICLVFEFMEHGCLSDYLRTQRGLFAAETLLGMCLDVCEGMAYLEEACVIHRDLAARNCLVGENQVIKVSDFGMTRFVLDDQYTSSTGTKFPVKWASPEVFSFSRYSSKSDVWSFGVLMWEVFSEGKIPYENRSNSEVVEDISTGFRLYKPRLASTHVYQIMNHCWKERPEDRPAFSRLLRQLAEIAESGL
Method in brief: as §1

[25] = target: PRKCI (Homo sapiens (Human), UniProt P41743)
Method in brief: as §1

[26] = target: JNK1 (Homo sapiens (Human), UniProt P45983)
Chain of JNK1 (P45983 whole entry): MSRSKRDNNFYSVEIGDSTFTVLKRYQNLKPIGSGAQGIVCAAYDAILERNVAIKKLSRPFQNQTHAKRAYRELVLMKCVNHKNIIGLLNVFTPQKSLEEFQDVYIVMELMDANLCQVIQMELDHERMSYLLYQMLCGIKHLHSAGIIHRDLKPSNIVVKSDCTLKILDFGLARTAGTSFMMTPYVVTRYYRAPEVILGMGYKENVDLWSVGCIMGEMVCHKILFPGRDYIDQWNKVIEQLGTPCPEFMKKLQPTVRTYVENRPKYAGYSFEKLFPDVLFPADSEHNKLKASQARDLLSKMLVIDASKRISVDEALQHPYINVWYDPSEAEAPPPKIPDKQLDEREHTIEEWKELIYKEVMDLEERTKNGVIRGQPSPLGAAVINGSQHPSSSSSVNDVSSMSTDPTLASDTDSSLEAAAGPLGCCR
Method in brief: as §1

[27] = target: SRMS (Homo sapiens (Human), UniProt Q9H3Y6)
Method in brief: as §1

[28] = target: EPHB1 (Homo sapiens (Human), UniProt P54762)
Chain of EPHB1 (P54762 18-984): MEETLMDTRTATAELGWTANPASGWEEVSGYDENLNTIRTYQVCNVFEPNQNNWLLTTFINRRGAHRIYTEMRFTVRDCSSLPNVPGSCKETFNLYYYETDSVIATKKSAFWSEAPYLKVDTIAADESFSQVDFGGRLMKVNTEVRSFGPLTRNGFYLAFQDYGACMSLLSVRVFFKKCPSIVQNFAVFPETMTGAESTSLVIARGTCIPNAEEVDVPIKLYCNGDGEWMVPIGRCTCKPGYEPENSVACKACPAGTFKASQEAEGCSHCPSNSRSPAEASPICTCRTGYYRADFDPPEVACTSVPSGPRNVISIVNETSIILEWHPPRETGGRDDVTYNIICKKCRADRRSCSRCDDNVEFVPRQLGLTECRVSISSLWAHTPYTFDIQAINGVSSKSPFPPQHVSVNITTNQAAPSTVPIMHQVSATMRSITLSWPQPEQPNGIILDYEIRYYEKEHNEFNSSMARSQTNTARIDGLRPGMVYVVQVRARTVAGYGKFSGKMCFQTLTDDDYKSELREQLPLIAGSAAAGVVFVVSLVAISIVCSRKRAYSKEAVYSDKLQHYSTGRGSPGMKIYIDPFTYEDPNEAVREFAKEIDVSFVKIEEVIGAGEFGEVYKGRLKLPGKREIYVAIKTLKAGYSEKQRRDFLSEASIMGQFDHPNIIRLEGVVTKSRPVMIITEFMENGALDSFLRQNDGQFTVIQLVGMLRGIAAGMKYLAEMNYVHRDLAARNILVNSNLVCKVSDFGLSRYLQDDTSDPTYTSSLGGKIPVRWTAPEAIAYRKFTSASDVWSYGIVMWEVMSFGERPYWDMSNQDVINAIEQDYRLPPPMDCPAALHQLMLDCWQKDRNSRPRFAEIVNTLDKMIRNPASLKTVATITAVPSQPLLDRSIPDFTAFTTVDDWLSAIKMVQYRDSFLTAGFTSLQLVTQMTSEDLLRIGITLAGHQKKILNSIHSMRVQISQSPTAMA
Method in brief: as §1

[29] = target: AMPK-alpha1 (Homo sapiens (Human), UniProt Q13131)
Chain of AMPK-alpha1 (Q13131 whole entry): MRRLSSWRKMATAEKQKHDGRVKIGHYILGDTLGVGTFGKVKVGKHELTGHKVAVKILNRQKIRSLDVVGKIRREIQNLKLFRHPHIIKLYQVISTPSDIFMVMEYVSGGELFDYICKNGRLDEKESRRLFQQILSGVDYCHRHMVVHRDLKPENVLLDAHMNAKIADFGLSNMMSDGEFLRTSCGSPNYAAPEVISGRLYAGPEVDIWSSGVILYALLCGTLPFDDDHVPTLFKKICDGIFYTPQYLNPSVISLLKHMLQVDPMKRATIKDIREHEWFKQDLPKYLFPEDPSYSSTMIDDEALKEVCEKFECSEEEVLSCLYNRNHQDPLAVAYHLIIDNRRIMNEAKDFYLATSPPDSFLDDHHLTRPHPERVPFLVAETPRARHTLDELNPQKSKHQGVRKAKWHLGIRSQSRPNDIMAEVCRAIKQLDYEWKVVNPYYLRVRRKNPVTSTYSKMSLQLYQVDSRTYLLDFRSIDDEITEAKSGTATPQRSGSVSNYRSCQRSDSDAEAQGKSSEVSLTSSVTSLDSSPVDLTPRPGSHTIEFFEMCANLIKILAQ
Method in brief: as §1

[30] = target: BRAF(V600E) (Homo sapiens (Human), UniProt P15056, V600E)
Method in brief: as §1

[31] = target: LOK (Homo sapiens (Human), UniProt O94804)
Method in brief: as §1

[32] = target: FLT4 (Homo sapiens (Human), UniProt P35916)
Method in brief: as §1

[33] = target: ABL1(Q252H)-nonphosphorylated (Homo sapiens (Human), UniProt P00519, Q252H)
Method in brief: as §1

[34] = target: WNK4 (Homo sapiens (Human), UniProt Q96J92)
Method in brief: as §1

[35] = target: WNK2 (Homo sapiens (Human), UniProt Q9Y3S1)
Method in brief: as §1

[36] = target: CAMKK1 (Homo sapiens (Human), UniProt Q8N5S9)
Method in brief: as §1

[37] = target: DYRK1A (Homo sapiens (Human), UniProt Q13627)
Method in brief: as §1

[38] = target: MAK (Homo sapiens (Human), UniProt P20794)
Method in brief: as §1

[39] = target: ERBB3 (Homo sapiens (Human), UniProt P21860)
Method in brief: as §1

**Q.** Which remaining binding at 1 µM [1] does the source give for `CCNc1cc(Nc2ccc(C(=O)N3CCC(N4CCOCC4)CC3)cc2OC)nc2[nH]cc(C#N)c12` [Example 18, 4-(ethylamino)-6-((2-methoxy-4-(4-morpholinopiperidine-1-carbonyl)phenyl)amino)-1H-pyrrolo[2,3-b]pyridine-3-carbonitrile] here?
**A.** 92%

**Q.** What about the remaining binding at 1 µM [2] of the same molecule?
**A.** 91%

**Q.** And the remaining binding at 1 µM [3]?
**A.** 71%

**Q.** What about the remaining binding at 1 µM [4] of the same molecule?
**A.** 79%

**Q.** What about the remaining binding at 1 µM [5] of the same molecule?
**A.** 41%

**Q.** And the remaining binding at 1 µM [6]?
**A.** 89%

**Q.** And the remaining binding at 1 µM [7]?
**A.** 80%

**Q.** What about the remaining binding at 1 µM [8] of the same molecule?
**A.** 43%

**Q.** And the remaining binding at 1 µM [9]?
**A.** 13%

**Q.** And the remaining binding at 1 µM [10]?
**A.** 57%

**Q.** And the remaining binding at 1 µM [11]?
**A.** 99%

**Q.** What about the remaining binding at 1 µM [12] of the same molecule?
**A.** 98%

**Q.** What about the remaining binding at 1 µM [13] of the same molecule?
**A.** 100%

**Q.** And the remaining binding at 1 µM [14]?
**A.** 1.9%

**Q.** What about the remaining binding at 1 µM [15] of the same molecule?
**A.** 98%

**Q.** What about the remaining binding at 1 µM [16] of the same molecule?
**A.** 63%

**Q.** And the remaining binding at 1 µM [17]?
**A.** 82%

**Q.** And the remaining binding at 1 µM [18]?
**A.** 8.5%

**Q.** And the remaining binding at 1 µM [19]?
**A.** 96%

**Q.** What about the remaining binding at 1 µM [20] of the same molecule?
**A.** 94%

**Q.** And the remaining binding at 1 µM [21]?
**A.** 98%

**Q.** And the remaining binding at 1 µM [22]?
**A.** 94%

**Q.** And the remaining binding at 1 µM [23]?
**A.** 14%

**Q.** What about the remaining binding at 1 µM [24] of the same molecule?
**A.** 87%

**Q.** And the remaining binding at 1 µM [25]?
**A.** 76%

**Q.** What about the remaining binding at 1 µM [26] of the same molecule?
**A.** 0%

**Q.** What about the remaining binding at 1 µM [27] of the same molecule?
**A.** 80%

**Q.** What about the remaining binding at 1 µM [28] of the same molecule?
**A.** 95%

**Q.** What about the remaining binding at 1 µM [29] of the same molecule?
**A.** 92%

**Q.** What about the remaining binding at 1 µM [30] of the same molecule?
**A.** 87%

**Q.** And the remaining binding at 1 µM [31]?
**A.** 91%

**Q.** What about the remaining binding at 1 µM [32] of the same molecule?
**A.** 100%

**Q.** And the remaining binding at 1 µM [33]?
**A.** 95%

**Q.** And the remaining binding at 1 µM [34]?
**A.** 79%

**Q.** What about the remaining binding at 1 µM [35] of the same molecule?
**A.** 91%

**Q.** What about the remaining binding at 1 µM [36] of the same molecule?
**A.** 70%

**Q.** And the remaining binding at 1 µM [37]?
**A.** 2%

**Q.** What about the remaining binding at 1 µM [38] of the same molecule?
**A.** 92%

**Q.** What about the remaining binding at 1 µM [39] of the same molecule?
**A.** 97%

**Q.** Which results are given for `CCNc1cc(Nc2ccc(C(=O)N3CCC(N4CCOCC4)CC3)cc2OC)nc2[nH]cc(C(F)(F)F)c12` [Example 57, (4-((4-(ethylamino)-3-(trifluoromethyl)-1H-pyrrolo[2,3-b]pyridin-6-yl)amino)-3-methoxyphenyl) (4-morpholinopiperidin-1-yl)methanone]?
**A.** remaining binding at 1 µM [1]: 91%; remaining binding at 1 µM [2]: 78%; remaining binding at 1 µM [3]: 73%; remaining binding at 1 µM [4]: 100%; remaining binding at 1 µM [5]: 100%; remaining binding at 1 µM [6]: 85%; remaining binding at 1 µM [7]: 100%; remaining binding at 1 µM [8]: 88%; remaining binding at 1 µM [9]: 14%; remaining binding at 1 µM [10]: 51%; remaining binding at 1 µM [11]: 80%; remaining binding at 1 µM [12]: 98%; remaining binding at 1 µM [13]: 98%; remaining binding at 1 µM [15]: 67%; remaining binding at 1 µM [16]: 95%; remaining binding at 1 µM [17]: 89%; remaining binding at 1 µM [19]: 84%; remaining binding at 1 µM [20]: 94%; remaining binding at 1 µM [21]: 78%; remaining binding at 1 µM [22]: 100%; remaining binding at 1 µM [24]: 97%; remaining binding at 1 µM [25]: 63%; remaining binding at 1 µM [26]: 40%; remaining binding at 1 µM [27]: 96%; remaining binding at 1 µM [28]: 94%; remaining binding at 1 µM [29]: 75%; remaining binding at 1 µM [30]: 94%; remaining binding at 1 µM [31]: 84%; remaining binding at 1 µM [32]: 99%; remaining binding at 1 µM [33]: 54%; remaining binding at 1 µM [34]: 100%; remaining binding at 1 µM [35]: 100%; remaining binding at 1 µM [36]: 59%; remaining binding at 1 µM [38]: 95%; remaining binding at 1 µM [39]: 100%
